Test: Viscosity measurement of vitamin E, MCT and binary blends
Assay type: physicochemical
Settings: 23 °C
Description: Viscosity of vitamin E, MCT, and their binary mixtures was measured using an advanced rheometer from TA Instruments Ltd, New Castle, Del. model number AR 2000. A cone and plate geometry was used with a steel plate radius of 40 mm and a cone angle of 2°. The gap between the cone and plate geometry was set at 100 μm. Rheological measurements were made at 23° C. The rheometer was fitted with a Peltier temperature control system, which was monitored during the experiments. For each test, approximately 1 g of vitamin E, MCT, or their binary mixtures was placed between the plates. Preliminary studies were conducted to optimize instrument parameters. Once the system was optimized, a continuous ramp method was used. The shear stress was measured at varying shear rates from 1 to 100 s−1 for a period of 5 minutes. All rheological measurements were carried out in triplicates. Data were analyzed using rheology software namely TA Rheology Advantage software, Version 2.3.
The viscosity of the blends decreased from a high of 3700 mPa·s for vitamin E alone to a low of 27 mPa·s, which is the viscosity of pure MCT. […] Therefore, two levels of vitamin E loading in the emulsion were evaluated in this study representing a high viscosity system at a 70/30 ratio and a low viscosity system at a 30/70 ratio of vitamin E to MCT. […]

viscosity: 3700 mPa·s
Substance: (±)-α-Tocopherol [vitamin E]
